# From patent US9458203B2, “Integrin-blocking polypeptides and uses thereof” (priority 2011, dated 2016)
# “And” between values parts separate entries of the source, which are not always exact repeats. Equal entries are not always repeated. Where two headings read alike, the source gives them in different places.
# Legend:
# [1] = test system: human endometrial cancer HHUA
# Experimental: (§1) Taking a certain amount of vigorously growing tumor tissue, grinding the tumor tissue under sterile conditions and preparing cell suspension at the concentration of 1×10^7 cells/ml; then hypodermicaly inoculating 0.1 ml of the cell suspension into the right axillary region of nude mice. Keeping measuring the diameter of the transplanted tumor with a vernier caliper, and randomly dividing the mice into groups when the volume of the tumor reached 100-200 mm^3. Observing the dynamic effect of integrin-blocking polypeptides on inhibiting the growth of the tumor by means of documenting the change of tumor diameters. Measuring the tumor diameter once every other day and recording the body weight of mice simultaneously. Intravenously injecting polypeptides to mice from test groups while administering equal quantity of physiological saline to mice from the negative control group. The total medication period was 14 days. Avastin was adopted to set up a positive control group; it was administered through the tail vein once every three days while all other drugs were administered through the tail vein once a day. Leaving mice for a one-week rest after 14 days' medication, then (21 days after medication) killing the mice, surgically dissecting the tumors and measuring the weight of tumors. The tumor volume (TV) was calculated in accordance with the following formula: TV=½×a×b^2
# (§2) Taxol used in the positive control group was administered once every 3 days through tail vein injection, while drugs of all other groups were administered on daily basis through tail vein injection.
# [2] = test system: human rectal cancer Colo 320
# Experimental: as §1, §2
# [3] = test system: human liver cancer SMMC-7721
# Experimental: as §1, §2
# melanoma B16F10 = experiment: transplanted melanoma B16F10 in C57BL/6 black mice
# Experimental: Hypodermically injecting polypeptides and other drugs into the left axillary region of mice from the experimental groups respectively while administering only equal quantity of physiological saline to the mice from the negative control group. The total medication period was 14 days, during which cyclophosphamide was administered once every other day, taxol once every three days, low-dose polypeptide twice a day and all other drugs once a day.
# [4] = test system: human umbilical vein endothelial cells (HUVECs); experiment: inhibition of capillary formation of HUVECs (matrigel); assay type: cell-based; conditions: 10 μg/ml; for inhibition at 10 µg/mL: Homo sapiens, HUVEC, read-out: inhibition rate (%) of capillary formation
# Experimental: Thawing 10 mg/mL matrigel (BD Company, USA) stocked at −20° C. overnight at 4° C., diluting it with HUVEC culture medium at the ratio of 1:1; smearing 30 μl of the solution on a 96-well plate (Greiner Company, USA), placing the plate at a 37 incubator for 1 h of aggregation. Digesting the HUVECs with 0.2% ethylene diamine tetraacetic acid (EDTA) when they reached the logarithmic phase; collecting the cells and washing them with PBS buffer twice, and then resuspending the cells with blank HUVEC culture medium. Counting the cells under a microscope, adjusting the cell concentration to 1×10^5 cells/ml. Preparing the testing solution for all groups, and diluting with blank HUVEC culture medium to 100 μl. Seeding the cells into the 96-well plate, 100 μl for each well, adding also the testing solution into each well and incubating the cells in 5% CO2 at 37° C. After 6 h, 12 h, 24 h, 36 h, 48 h, 60 h of incubation, randomly choosing 5 FOVs for each dose, photographing and counting the cells; calculating the number of capillary structures at different doses and analyzing the inhibition effect of polypeptide II and polypeptide III on HUVECs' differentiating into capillaries. The inhibition rate of capillary formation was calculated in accordance with the following formula: […]
# wherein Ntest is the number of capillary structures in the test groups while Ncontrol is the number of capillary structures in the negative control group.
# [5] = 10 mg/kg/time, tail vein once every 3 days
# [6] = positive control, tail vein once every 3 days
# [7] = taxol 10 mg/kg/time, once every 3 days, tail vein injection
# Experimental for human brain tumor SF763: as §1, §2
# Experimental for human lung cancer H460: as §1, §2
structure (smiles),measurement,setting,value
"CC(=O)O[C@H]1C(=O)[C@@]2(C)[C@H]([C@H](OC(=O)c3ccccc3)[C@]3(O)C[C@H](OC(=O)[C@H](O)[C@@H](NC(=O)c4ccccc4)c4ccccc4)C(C)=C1C3(C)C)[C@]1(OC(C)=O)CO[C@@H]1C[C@@H]2O [taxol, reference compound]",tumor weight,[1]; [5],0.23 ± 0.07 g
same,"body weight of animals, in words","[1]; mouse, in vivo",greatly reduced the body weight
same,"toxic and side effects, in words","[1]; mouse, in vivo",more apparent toxic and side effects
same,"body weight of animals, in words","[2]; mouse, in vivo",greatly reduced the body weight
same,"toxic and side effects, in words","[2]; mouse, in vivo",more apparent toxic and side effects
same,inhibition rate on tumor,[2]; [6],76.62%
same,tumor inhibition rate,[2]; [7],76.62%
same,tumor weight,[2]; [7],0.29 ± 0.07 g
same,tumor inhibition rate,[3]; [5],78.10%
same,tumor weight,[3]; [5],0.28 ± 0.05 g
same,"body weight of animals, in words","[3]; mouse, in vivo",greatly reduced the body weight
same,"toxic and side effects, in words","[3]; mouse, in vivo",more apparent toxic and side effects
same,tumor inhibition rate,human lung cancer H460; [5],68.21%
same,tumor weight,human lung cancer H460; [5],0.28 ± 0.07 g
same,"body weight of animals, in words","human lung cancer H460; mouse, in vivo",greatly reduced the body weight
same,"toxic and side effects, in words","human lung cancer H460; mouse, in vivo",more apparent toxic and side effects
same,tumor weight,"melanoma B16F10; 10 mg/kg/time once every three days, hypodermic, 14 days",0.77 ± 0.62 g and 0.98 ± 0.30 g
same,"body weight of animals, in words","melanoma B16F10; mouse, in vivo",greatly reduced the body weight
same,"toxic and side effects, in words","melanoma B16F10; mouse, in vivo",severer toxic and side effects
same,"body weight of animals, in words","human brain tumor SF763; mouse, in vivo",greatly reduced the body weight
same,"toxic and side effects, in words","human brain tumor SF763; mouse, in vivo",more apparent toxic and side effects
same,inhibition rate on tumor,human brain tumor SF763; [6],76.29%
same,tumor inhibition rate,human brain tumor SF763; [7],76.29%
same,tumor weight,human brain tumor SF763; [7],0.28 ± 0.07 g
same,number of capillary structures (mean ± SD),[4]; 6 h,0.0 ± 0.0
same,number of capillary structures (mean ± SD),[4]; 12 h,0.0 ± 0.0
same,inhibition at 10 µg/mL,[4]; 6 h,100%
same,inhibition at 10 µg/mL,[4]; 12 h,100%
